# Assays:
# [1] = tested on: P. falciparum female gametocytes; assay: P. falciparum Dual Gamete Formation Assay (PfDGFA), female readout (Pfs25-positive female gametes); format: cell-based, Plasmodium falciparum NF54; details: for Average inhibition female (%): average of replicates; for % inhibition female (individual replicates) R1: replicate R1; for % inhibition female (individual replicates) R3: replicate R3; for % inhibition female (individual replicates) R4: replicate R4
# Outline: (§1)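 Day-14 NF54 gametocytes were incubated with compound for 24 h at 37°C under 1% O2/3% CO2/96% N2. Gametogenesis was triggered with ookinete medium (0.1 μM xanthurenic acid) plus Cy3-anti-Pfs25, and exflagellation was imaged by brightfield after cooling to 4°C then 28°C. Females were imaged by Pfs25 fluorescence 24 h later at 28°C.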
# [2] = tested on: P. falciparum male gametocytes; assay: P. falciparum Dual Gamete Formation Assay (PfDGFA), male readout (exflagellation); format: cell-based, Plasmodium falciparum NF54; details: for Average inhibition male (%): average of replicates; for % inhibition male (individual replicates) R1: replicate R1; for % inhibition male (individual replicates) R3: replicate R3; for % inhibition male (individual replicates) R4: replicate R4; for Activity: hit = >50% inhibition in male or female readout in at least 3 replicates, 0 = no class assigned
# Outline: as §1
# [3] = 2µM, 24h preincubation with gametocytes prior to induction of gametogenesis
# [4] = 2µM, 24h preincubation, number of replicates with >50% inhibition in the female readout
# [5] = 2µM, 24h preincubation, number of replicates with >50% inhibition in the male readout
# [6] = PfDGFA at 2µM, 24h preincubation with gametocytes prior to induction of gametogenesis
# [7] = PfDGFA at 2µM, 24h preincubation
# [8] = 2µM, 24h preincubation, hits selected on >50% inhibition in the female readout across replicates
# [9] = 2µM, 24h preincubation, hits selected on >50% inhibition in the male readout across replicates
# [10] = PfDGFA at 2µM, 24h preincubation with gametocytes
# [11] = number of replicates with >50% inhibition in the female readout, 2µM
# [12] = number of replicates with >50% inhibition in the male readout, 2µM
# [13] = 2µM, 24h preincubation with gametocytes
smiles,measurement,setting,value
Cl.c1ccc2c(NCCCCCCCCCNc3ccnc4ccccc34)ccnc2c1 [TCMDC-137750],Average inhibition female (%),[1]; [3],39.1%
same,% inhibition female (individual replicates) R1,[1]; [3],35.8%
same,% inhibition female (individual replicates) R3,[1]; [3],19.4%
same,% inhibition female (individual replicates) R4,[1]; [3],48.2%
same,HitlevelF,[1]; [4],1
same,Average inhibition male (%),[2]; [3],54.0%
same,% inhibition male (individual replicates) R1,[2]; [3],40.7%
same,% inhibition male (individual replicates) R3,[2]; [3],8.2%
same,% inhibition male (individual replicates) R4,[2]; [3],84.2%
same,HitlevelM,[2]; [5],2
COCCOc1nc(N)nc2ncc(Cc3cc(OC)ccc3OC)c(C)c12 [TCMDC-137754],% inhibition female (individual replicates) R1,[1]; [6],1.5%
same,% inhibition female (individual replicates) R3,[1]; [6],-13.9%
same,% inhibition female (individual replicates) R4,[1]; [6],2.0%
same,Average inhibition female (%),[1]; [7],-4.6%
same,% inhibition male (individual replicates) R1,[2]; [6],18.4%
same,% inhibition male (individual replicates) R3,[2]; [6],27.4%
same,% inhibition male (individual replicates) R4,[2]; [6],26.2%
same,Average inhibition male (%),[2]; [7],25.9%
OCc1ccc2nc3c(cc2c1)-c1cccc2cccc-3c12 [TCMDC-137756],% inhibition female (individual replicates) R1,[1]; [6],4.5%
same,% inhibition female (individual replicates) R3,[1]; [6],-23.9%
same,% inhibition female (individual replicates) R4,[1]; [6],-12.7%
same,Average inhibition female (%),[1]; [7],-11.0%
same,% inhibition male (individual replicates) R1,[2]; [6],-3.7%
same,% inhibition male (individual replicates) R3,[2]; [6],13.3%
same,% inhibition male (individual replicates) R4,[2]; [6],12.3%
same,Average inhibition male (%),[2]; [7],6.9%
COc1ccc(O)c(Cc2cnc3nc(N)[nH]c(=O)c3c2C)c1.CS(=O)(=O)O [TCMDC-137766],% inhibition female (individual replicates) R1,[1]; [6],3.3%
same,% inhibition female (individual replicates) R3,[1]; [6],-13.8%
same,% inhibition female (individual replicates) R4,[1]; [6],-13.6%
same,Average inhibition female (%),[1]; [7],-2.6%
same,% inhibition male (individual replicates) R1,[2]; [6],13.3%
same,% inhibition male (individual replicates) R3,[2]; [6],-7.3%
same,% inhibition male (individual replicates) R4,[2]; [6],-9.1%
same,Average inhibition male (%),[2]; [7],1.5%
COc1ccccc1N1CCN(CCCCNC(=O)c2ccc(NC(=O)c3ccc(OC(F)(F)F)cc3)cc2)CC1.Cl [TCMDC-137780],Average inhibition female (%),[1]; [3],5.4%
same,% inhibition female (individual replicates) R1,[1]; [3],10.5%
same,% inhibition female (individual replicates) R3,[1]; [3],-10.0%
same,% inhibition female (individual replicates) R4,[1]; [3],19.1%
same,HitlevelF,[1]; [8],0
same,Average inhibition male (%),[2]; [3],-3.4%
same,% inhibition male (individual replicates) R1,[2]; [3],-7.9%
same,% inhibition male (individual replicates) R3,[2]; [3],-14.4%
same,% inhibition male (individual replicates) R4,[2]; [3],10.6%
same,HitlevelM,[2]; [9],0
same,Activity,[2]; [7],0
Cc1cc(N)nc2ccc(-c3ccc(CCN)cc3)cc12 [TCMDC-137786],Average inhibition female (%),[1]; [10],37.0%
same,% inhibition female (individual replicates) R1,[1]; [10],36.7%
same,% inhibition female (individual replicates) R3,[1]; [10],37.4%
same,% inhibition female (individual replicates) R4,[1]; [10],36.1%
same,HitlevelF,[1]; [11],0
same,Average inhibition male (%),[2]; [10],75.8%
same,% inhibition male (individual replicates) R1,[2]; [10],70.7%
same,% inhibition male (individual replicates) R4,[2]; [10],86.5%
same,HitlevelM,[2]; [12],3
CCOc1ccc2ccccc2c1CNCCCCCCNCc1c(OCC)ccc2ccccc12.CS(=O)(=O)O [TCMDC-137791],Average inhibition female (%),[1]; [10],47.4%
same,% inhibition female (individual replicates) R1,[1]; [10],37.1%
same,% inhibition female (individual replicates) R3,[1]; [10],17.2%
same,% inhibition female (individual replicates) R4,[1]; [10],66.6%
same,HitlevelF,[1]; [11],2
same,Average inhibition male (%),[2]; [10],87.1%
same,% inhibition male (individual replicates) R1,[2]; [10],89.3%
same,% inhibition male (individual replicates) R3,[2]; [10],68.9%
same,% inhibition male (individual replicates) R4,[2]; [10],93.6%
same,HitlevelM,[2]; [12],4
c1cc(Cc2ccc(Nc3c4ccccc4nc4ccccc34)cc2)cc(Nc2c3ccccc3nc3ccccc23)c1 [TCMDC-137793],Average inhibition female (%),[1]; [3],14.4%
same,% inhibition female (individual replicates) R1,[1]; [3],13.9%
same,% inhibition female (individual replicates) R3,[1]; [3],7.5%
same,% inhibition female (individual replicates) R4,[1]; [3],13.1%
same,HitlevelF,[1]; [8],0
same,Average inhibition male (%),[2]; [3],2.5%
same,% inhibition male (individual replicates) R1,[2]; [3],17.2%
same,% inhibition male (individual replicates) R3,[2]; [3],-11.5%
same,% inhibition male (individual replicates) R4,[2]; [3],-9.8%
same,HitlevelM,[2]; [9],0
same,Activity,[2]; [7],0
COc1cc2ccccc2c(CNCCCCCCNCc2c(OC)c(OC)cc3ccccc23)c1OC.CS(=O)(=O)O [TCMDC-137795],Average inhibition female (%),[1]; [10],31.5%
same,% inhibition female (individual replicates) R1,[1]; [10],34.0%
same,% inhibition female (individual replicates) R3,[1]; [10],23.0%
same,% inhibition female (individual replicates) R4,[1]; [10],18.6%
same,HitlevelF,[1]; [11],1
same,Average inhibition male (%),[2]; [10],66.8%
same,% inhibition male (individual replicates) R1,[2]; [10],59.0%
same,% inhibition male (individual replicates) R3,[2]; [10],36.7%
same,% inhibition male (individual replicates) R4,[2]; [10],86.9%
same,HitlevelM,[2]; [12],3
Br.c1cc(C2=NC3CCCCC3N2)ccc1OCCCCCOc1ccc(C2=NC3CCCCC3N2)cc1 (stereo not shown) [TCMDC-137802],% inhibition female (individual replicates) R1,[1]; [6],13.0%
same,% inhibition female (individual replicates) R3,[1]; [6],-14.3%
same,% inhibition female (individual replicates) R4,[1]; [6],-0.44%
same,Average inhibition female (%),[1]; [7],3.6%
same,% inhibition male (individual replicates) R1,[2]; [6],3.7%
same,% inhibition male (individual replicates) R3,[2]; [6],3.4%
same,% inhibition male (individual replicates) R4,[2]; [6],-3.8%
same,Average inhibition male (%),[2]; [7],-1.7%
Nc1nc(N)c2c(ccc3c2ccn3Cc2cccc(F)c2)n1 [TCMDC-137810],Average inhibition female (%),[1]; [3],73.3%
same,% inhibition female (individual replicates) R1,[1]; [3],69.9%
same,% inhibition female (individual replicates) R3,[1]; [3],85.4%
same,% inhibition female (individual replicates) R4,[1]; [3],66.6%
same,HitlevelF,[1]; [4],4
same,Average inhibition male (%),[2]; [3],57.9%
same,% inhibition male (individual replicates) R1,[2]; [3],71.9%
same,% inhibition male (individual replicates) R3,[2]; [3],59.3%
same,% inhibition male (individual replicates) R4,[2]; [3],64.6%
same,HitlevelM,[2]; [5],3
COc1cccc(Cn2ccc3c4c(N)nc(N)nc4ccc32)c1 [TCMDC-137811],Average inhibition female (%),[1]; [3],75.4%
same,% inhibition female (individual replicates) R1,[1]; [3],72.3%
same,% inhibition female (individual replicates) R3,[1]; [3],74.8%
same,% inhibition female (individual replicates) R4,[1]; [3],79.8%
same,HitlevelF,[1]; [4],4
same,Average inhibition male (%),[2]; [3],42.3%
same,% inhibition male (individual replicates) R1,[2]; [3],37.2%
same,% inhibition male (individual replicates) R3,[2]; [3],47.4%
same,% inhibition male (individual replicates) R4,[2]; [3],43.4%
same,HitlevelM,[2]; [5],0
CS(=O)(=O)O.FC(F)(F)COc1ccc2ccccc2c1CNCCCCCCNCc1c(OCC(F)(F)F)ccc2ccccc12 [TCMDC-137816],Average inhibition female (%),[1]; [13],42.8%
same,% inhibition female (individual replicates) R1,[1]; [13],37.4%
same,% inhibition female (individual replicates) R3,[1]; [13],26.9%
same,% inhibition female (individual replicates) R4,[1]; [13],39.6%
same,Average inhibition male (%),[2]; [13],91.3%
same,% inhibition male (individual replicates) R1,[2]; [13],97.0%
same,% inhibition male (individual replicates) R3,[2]; [13],82.6%
same,% inhibition male (individual replicates) R4,[2]; [13],90.9%
N#Cc1ccc(Cn2ccc3c4c(N)nc(N)nc4ccc32)cc1 [TCMDC-137820],Average inhibition female (%),[1]; [3],75.9%
same,% inhibition female (individual replicates) R1,[1]; [3],77.9%
same,% inhibition female (individual replicates) R3,[1]; [3],77.4%
same,% inhibition female (individual replicates) R4,[1]; [3],70.8%
same,HitlevelF,[1]; [4],4
same,Average inhibition male (%),[2]; [3],57.5%
same,% inhibition male (individual replicates) R1,[2]; [3],46.1%
same,% inhibition male (individual replicates) R3,[2]; [3],51.2%
same,% inhibition male (individual replicates) R4,[2]; [3],67.4%
same,HitlevelM,[2]; [5],3
COc1cc(CNCCCCCCNCc2cc(OC)cc3ccccc23)c2ccccc2c1.CS(=O)(=O)O [TCMDC-137823],Average inhibition female (%),[1]; [3],15.2%
same,% inhibition female (individual replicates) R1,[1]; [3],16.9%
same,% inhibition female (individual replicates) R3,[1]; [3],3.5%
same,% inhibition female (individual replicates) R4,[1]; [3],20.5%
same,HitlevelF,[1]; [8],0
same,Average inhibition male (%),[2]; [3],27.1%
same,% inhibition male (individual replicates) R1,[2]; [3],24.9%
same,% inhibition male (individual replicates) R3,[2]; [3],12.3%
same,% inhibition male (individual replicates) R4,[2]; [3],38.9%
same,HitlevelM,[2]; [9],0
same,Activity,[2]; [7],0

# From publication PMC10584170, “Machine learning-based phenotypic imaging to characterise the targetable biology of Plasmodium falciparum male gametocytes for the development of transmission-blocking antimalarials” (PLOS Pathogens, 2023)
